Results from US10519099B2, “Cystobactamides” (priority 2014, dated 2019).
Converted amounts (≈) assume the structure as drawn.

Tests used:
[1] = test system: Citrobacter freundii DSM-30039; assay: MIC microdilution, C. freundii DSM-30039; format: cell-based
Description: (§1) Indicator strains used in susceptibility assays were either part of our strain collection or purchased from the German Collection of Microorgansims and Cell Cultures (DSMZ) or from the American Type Culture Collection (ATCC). E. coli strain WT and corresponding E. coli mutants were kindly provided by Prof. Dr. P. Heisig, Pharmaceutical Biology and Microbiology, University of Hamburg. E. coli strains JW0401-1 (WT) and Δtsx were obtained from the CGSC collection.
(§2) MIC values were determined in standardized microdilution assays. Overnight cultures were diluted in the appropriate growth medium to achieve an inoculum of 10^4-10^6 cfu/mL. Yeasts were grown in Myc medium (1% phytone peptone, 1% glucose, 50 mM HEPES, pH 7.0), S. pneumonia and Enterococcus spp. in tryptic soy broth (TSB: 1.7% peptone casein, 0.3% peptone soymeal, 0.25% glucose, 0.5% NaCl, 0.25% K2HPO4; pH 7.3); M. smegmatis in Middlebrook 7H9 medium supplemented with 10% Middlebrook ADC enrichment and 2 ml/I glycerol). All other listed bacteria were grown in Müller-Hinton broth (0.2% beef infusion solids, 1.75% casein hydrolysate, 0.15% starch, pH 7.4). Cystobactamides and reference drugs were added directly to the cultures in sterile 96-well plates as duplicates and serial dilutions were prepared. Microorganisms were grown on a microplate shaker (750 rpm, 30-37° C., 18-48 h), except S. pneumonia, which was grown at non-shaking conditions (37° C., 5% CO2, 18 h). Growth inhibition was assessed by visual inspection and the MIC was defined as the lowest concentration of compound that inhibited visible growth.

[2] = test system: P. aeruginosa DSM-24600 (ESBL); assay: MIC microdilution, P. aeruginosa DSM-24600 (ESBL); format: cell-based, Pseudomonas aeruginosa
Description: as §1, §2

[3] = test system: E. coli DSM-26863 (tolC3); assay: MIC microdilution, E. coli DSM-26863 (tolC3); format: cell-based, Escherichia coli
Description: as §1, §2

[4] = test system: Enterococcus faecium DSM-20477; assay: MIC microdilution, Enterococcus faecium DSM-20477; format: cell-based; settings: larger panel
Description: as §1, §2

E. coli DSM-1116 = assay: MIC microdilution, E. coli DSM-1116; format: cell-based, Escherichia coli
Description: as §1, §2

[5] = test system: Pseudomonas aeruginosa ATCC27853; assay: MIC microdilution, P. aeruginosa ATCC27853; format: cell-based; settings: larger panel
Description: as §1, §2

[6] = test system: Serratia marcescens DSM-30121; assay: MIC microdilution, Serratia marcescens DSM-30121; format: cell-based; settings: larger panel
Description: as §1, §2

[7] = test system: Proteus vulgaris DSM-2140; assay: MIC microdilution, P. vulgaris DSM-2140; format: cell-based
Description: as §1, §2

[8] = test system: CHO-K1 (Chinese hamster ovary cell line); assay: Cytotoxicity (MTT), CHO-K1 cell line; format: cell-based; settings: 5 d incubation
Description: CHO-K1 cells were obtained from the DSMZ and were cultured under conditions recommended by the depositor. Cells were seeded at 6×10^3 cells/well of 96-well plates in 180 μl complete medium and treated with compounds in serial dilution after 2 h of equilibration. Each sample was tested in duplicate as well as the internal DMSO control. After 5 d incubation, 20 μl of 5 mg/ml MTT (thiazolyl blue tetrazolium bromide) in PBS was added per well and it was further incubated for 2 h at 37° C. The medium was then discarded and cells were washed with 100 μl PBS before adding 100 μl 2-propanol/10 N HCl (250:1) in order to dissolve formazan granules. The absorbance at 570 nm was measured using a microplate reader (Tecan Infinite M200Pro), and cell viability was expressed as percentage relative to the respective […] control.

[9] = test system: Pseudomonas aeruginosa PA14; assay: MIC microdilution, P. aeruginosa PA14; format: cell-based; settings: larger panel
Description: as §1, §2

E. coli WT = assay: MIC microdilution, E. coli WT; format: cell-based, Escherichia coli
Description: as §1, §2

[10] = test system: E. coli WT-3 [gyrA(S83L, D87G)]; assay: MIC microdilution, E. coli WT-3 [gyrA(S83L, D87G)]; format: cell-based, Escherichia coli
Description: as §1, §2

P. aeruginosa gyrase = biological target: T1, P. aeruginosa gyrase (Pseudomonas aeruginosa, UniProt P48372+Q9I7C2); assay: P. aeruginosa gyrase DNA supercoiling assay; format: biochemical; settings: read-out: IC50 Pa gyrase (sc)
T1 construct: purchased Inspiralis, Norwich, UK
Description: (§3) To test the anti-gyrase activity of cystobactamides, commercial E. coli and P. aeruginosa gyrase supercoiling kits (Inspiralis, Norwich, UK) were used. For standard reactions 0.5 μg relaxed plasmid were mixed with 1 unit gyrase in 1× reaction buffer (see kit manual) and incubated for 30 min at 37° C. The reactions were quenched by the addition of DNA gel loading buffer containing 10% (w/v) SDS. The samples were separated on 1% (w/v) agarose gels and DNA was visualized using EtBr. All natural products stock solutions and dilutions were prepared in 100% DMSO and added to the supercoiling reactions giving a final DMSO concentration of 2% (v/v).

[11] = test system: Escherichia coli (TolC-deficient); assay: MIC microdilution, E. coli (TolC-deficient); format: cell-based; settings: larger panel
Description: as §1
as §2, with “Cystobactamides and reference drugs were added directly to the cultures in sterile 96-well plates as duplicates and serial dilutions were prepared. Microorganisms were grown on a microplate shaker (750 rpm, 30-37° C., 18-48 h), except S. pneumonia, which was grown at non-shaking conditions (37° C., 5% CO2, 18 h).” left out

[12] = test system: Pseudomonas aeruginosa DSM-24599; assay: MIC microdilution, P. aeruginosa DSM-24599; format: cell-based; settings: larger panel
Description: as §1, §2

[13] = test system: Enterobacter cloacae DSM-30054; assay: MIC microdilution, Enterobacter cloacae DSM-30054; format: cell-based; settings: larger panel
Description: Dr. P. Heisig, Pharmaceutical Biology and Microbiology, University of Hamburg.
Overnight cultures were diluted in the appropriate growth medium to achieve an inoculum of 10^4-10^6 cfu/mL. […] Cystobactamides and reference drugs were added directly to the cultures in sterile 96-well plates as duplicates and serial dilutions were prepared. Microorganisms were grown on a microplate shaker (750 rpm, 30-37° C., 18-48 h), except S. pneumonia, which was grown at non-shaking conditions (37° C., 5% CO2, 18 h). Growth inhibition was assessed by visual inspection and the MIC was defined as the lowest concentration of compound that inhibited visible growth.

E. coli gyrase = biological target: T2, E. coli gyrase (Escherichia coli, UniProt P0AES4+P0AES6); assay: E. coli gyrase DNA supercoiling assay; format: biochemical; settings: read-out: IC50 Ec gyrase (sc)
T2 construct: purchased Inspiralis, Norwich, UK
Description: as §3

E. coli Δtsx = assay: MIC microdilution, E. coli Δtsx; format: cell-based, Escherichia coli; settings: Gram-negative set
Description: as §1
as §2, with “Cystobactamides and reference drugs were added directly to the cultures in sterile 96-well plates as duplicates and serial dilutions were prepared. Microorganisms were grown on a microplate shaker (750 rpm, 30-37° C., 18-48 h), except S. pneumonia, which was grown at non-shaking conditions (37° C., 5% CO2, 18 h).” left out

[14] = test system: Staphylococcus epidermidis DSM-28765; assay: MIC microdilution, Staphylococcus epidermidis DSM-28765; format: cell-based; settings: larger panel
Description: as §1, §2

E. coli JW0401-1 (WT) = assay: MIC microdilution, E. coli JW0401-1 (WT); format: cell-based, Escherichia coli; settings: Gram-negative set
Description: as §1
as §2, with “Cystobactamides and reference drugs were added directly to the cultures in sterile 96-well plates as duplicates and serial dilutions were prepared. Microorganisms were grown on a microplate shaker (750 rpm, 30-37° C., 18-48 h), except S. pneumonia, which was grown at non-shaking conditions (37° C., 5% CO2, 18 h).” left out

[15] = test system: Acinetobacter baumannii DSM-30008; assay: MIC microdilution, A. baumannii DSM-30008; format: cell-based
Description: as §1, §2

[16] = test system: E. coli WT-III [marRΔ74bp]; assay: MIC microdilution, E. coli WT-III [marRΔ74bp]; format: cell-based, Escherichia coli
Description: as §1, §2

[17] = test system: Pseudomonas aeruginosa DSM-46316 (ESBL); assay: MIC microdilution, P. aeruginosa DSM-46316 (ESBL); format: cell-based; settings: larger panel
Description: as §1, §2

CO[C@@H](C(N)=O)[C@H](NC(=O)c1ccc(NC(=O)c2ccc([N+](=O)[O-])cc2)cc1)C(=O)Nc1ccc(C(=O)Nc2ccc(C(=O)Nc3ccc(C(=O)O)cc3)c(O)c2OC(C)C)cc1 [Cys 861-2]
MIC C. freundii DSM-30039 ([1]; Gram-negative set): 0.06 µg/mL (≈ 0.0696 µM)
MIC Citrobacter freundii DSM-30039 ([1]; larger panel): 0.06 µg/mL (≈ 0.0696 µM)
MIC P. aeruginosa DSM-24600 (ESBL) ([2]; Gram-negative set): 1 µg/mL (≈ 1.16 µM)
MIC Pseudomonas aeruginosa DSM-24600 (ESBL) ([2]; larger panel): 1 µg/mL (≈ 1.16 µM)
MIC E. coli DSM-26863 (tolC3) ([3]; Gram-negative set): 0.06 µg/mL (≈ 0.0696 µM)
MIC Escherichia coli DSM-26863 (tolC3) ([3]; larger panel): 0.4 µg/mL (≈ 0.464 µM)
MIC Enterococcus faecium DSM-20477 [4]: 0.5 µg/mL (≈ 0.58 µM)
MIC E. coli DSM-1116 (E. coli DSM-1116; Gram-negative set): 0.13 µg/mL (≈ 0.151 µM)
MIC Escherichia coli DSM-1116 (E. coli DSM-1116; larger panel): 0.4 µg/mL (≈ 0.464 µM)
MIC Pseudomonas aeruginosa ATCC27853 [5]: 4 µg/mL (≈ 4.64 µM)
MIC Serratia marcescens DSM-30121 [6]: 64 µg/mL (≈ 74.3 µM)
MIC P. vulgaris DSM-2140 ([7]; Gram-negative set): 0.25 µg/mL (≈ 0.29 µM)
MIC Proteus vulgaris DSM-2140 ([7]; larger panel): 0.25 µg/mL (≈ 0.29 µM)
IC50 [8]: > 100000 nM
MIC Pseudomonas aeruginosa PA14 [9]: 2 µg/mL (≈ 2.32 µM)
MIC E. coli WT (E. coli WT; Gram-negative set): 0.13 µg/mL (≈ 0.151 µM)
MIC Escherichia coli WT (E. coli WT; larger panel): 0.125 µg/mL (≈ 0.145 µM)
MIC E. coli WT-3 [gyrA(S83L, D87G)] ([10]; Gram-negative set): 0.5 µg/mL (≈ 0.58 µM)
MIC Escherichia coli WT-3 [gyrA(S83L, D87G)] ([10]; larger panel): 0.5 µg/mL (≈ 0.58 µM)
IC50 (P. aeruginosa gyrase): 180 nM
MIC Escherichia coli (TolC-deficient) [11]: 0.06 µg/mL (≈ 0.0696 µM)
MIC Pseudomonas aeruginosa DSM-24599 [12]: 2 µg/mL (≈ 2.32 µM)
MIC Enterobacter cloacae DSM-30054 [13]: 64 µg/mL (≈ 74.3 µM)
IC50 (E. coli gyrase): 280 nM
genotoxic effect, micronucleus formation (CHO-K1 cell line): No detectable genotoxic effect
MIC E. coli Δtsx (E. coli Δtsx): 0.25 µg/mL (≈ 0.29 µM)
MIC Staphylococcus epidermidis DSM-28765 [14]: 0.5 µg/mL (≈ 0.58 µM)
MIC E. coli JW0401-1 (WT) (E. coli JW0401-1 (WT)): 0.25 µg/mL (≈ 0.29 µM)
MIC A. baumannii DSM-30008 ([15]; Gram-negative set): 0.5 µg/mL (≈ 0.58 µM)
MIC Acinetobacter baumannii DSM-30008 ([15]; larger panel): 0.5 µg/mL (≈ 0.58 µM)
MIC E. coli WT-III [marRΔ74bp] ([16]; Gram-negative set): 0.5 µg/mL (≈ 0.58 µM)
MIC Escherichia coli WTIII (marRΔ74bp) ([16]; larger panel): 0.5 µg/mL (≈ 0.58 µM)
MIC Pseudomonas aeruginosa DSM-46316 (ESBL) [17]: 2 µg/mL (≈ 2.32 µM)
